# Laboratory results reported in patent publication EP1388586A2, “Identification of broadly reactive DR restricted epitopes” (priority 1998, dated 1999).
# pIC50: −log10 of the molar value. Ends that are not written are not given here. Peptide text beside a SMILES is read from it.
# Molecular target: T1, DRB1*0301 (DR3w17) (Homo sapiens, UniProt P01903+P01911, A100K/A102G/A103R/A169T/F55Y/I96L/K41T/L162R/M171V/P40S/Q125H/Q178H/Q39Y/R42S/S66N/T106N/T262R/W38E/Y61H)
# T1 construct: used as sources of human HLA class II molecules; endogenous in cells; host or cells: MAT (EBV-transformed homozygous B cell line)
# Experiment: Class II peptide-binding assay, DR3 (pH 4.5);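 note: unlabeled peptide competing with a radiolabeled probe peptide for binding to affinity-purified HLA-DR3, IC50 regarded as an approximation of Kd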
# Details: Table VIII; values in parentheses read as lower bounds; read-out: In IC50 Format DR3
# T1 sequence (P01903 26-254, other chains not shown): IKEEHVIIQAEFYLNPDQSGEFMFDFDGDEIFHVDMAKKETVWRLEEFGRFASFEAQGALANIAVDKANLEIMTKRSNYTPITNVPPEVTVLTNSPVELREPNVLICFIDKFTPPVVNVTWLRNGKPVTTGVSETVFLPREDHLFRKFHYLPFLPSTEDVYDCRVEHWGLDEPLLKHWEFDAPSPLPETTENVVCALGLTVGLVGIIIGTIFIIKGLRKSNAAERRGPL
row,pIC50,Molecule
1,5.37,CSCC[C@H](NC(=O)[C@H](CCCNC(=N)N)NC(=O)[C@H](CO)NC(=O)[C@H](Cc1ccccc1)NC(=O)[C@H](CCC(=O)O)NC(=O)[C@H](CO)NC(=O)[C@@H](NC(=O)[C@H](CC(C)C)NC(=O)[C@H](CCC(=O)O)NC(=O)[C@H](CCCNC(=N)N)NC(=O)[C@@H](N)Cc1ccccc1)C(C)C)C(=O)N[C@@H](C)C(=O)N[C@@H](CCCNC(=N)N)C(=O)N[C@@H](CC(=O)O)C(=O)N1CCC[C@H]1C(=O)O [Peptide 39.0370]
2,5.24,SLSFLQDIQEVQGYV [Peptide 39.0339]

# Same assay, conditions: read-out: In IC50 Format DR3 nM; Table VIII; values in parentheses read as lower bounds
row,pIC50,Molecule
1,< 3.92,SDVFDGDLGMGAAKG [Peptide 39.0378]
2,< 3.95,CC[C@H](C)[C@H](N)C(=O)N[C@@H](Cc1c[nH]c2ccccc12)C(=O)N[C@@H](CCCCN)C(=O)N[C@@H](Cc1ccccc1)C(=O)N1CCC[C@H]1C(=O)N[C@@H](CC(=O)O)C(=O)N[C@@H](CCC(=O)O)C(=O)N[C@@H](CCC(=O)O)C(=O)NCC(=O)N[C@@H](C)C(=O)N[C@@H](CS)C(=O)N[C@@H](CCC(N)=O)C(=O)N1CCC[C@H]1C(=O)N[C@@H](CS)C(=O)N1CCC[C@H]1C(=O)O [Peptide 39.0358] (H-IWKFPDEEGACQPCP-OH)
3,< 3.95,CC(C)C[C@H](NC(=O)[C@H](CS)NC(=O)[C@H](Cc1c[nH]cn1)NC(=O)[C@H](CCCNC(=N)N)NC(=O)[C@H](C)NC(=O)[C@H](CC(N)=O)NC(=O)[C@@H](NC(=O)[C@H](Cc1ccc(O)cc1)NC(=O)[C@H](CCC(=O)O)NC(=O)[C@H](CCCNC(=N)N)NC(=O)[C@@H]1CCCN1C(=O)[C@H](CC(C)C)NC(=O)CNC(=O)[C@H](CCC(N)=O)NC(=O)[C@@H](N)CC(C)C)C(C)C)C(=O)O [Peptide 39.0355]
4,4.29,CC(C)C[C@H](NC(=O)[C@H](Cc1ccc(O)cc1)NC(=O)[C@H](CC(N)=O)NC(=O)[C@@H](N)Cc1ccc(O)cc1)C(=O)N[C@@H](CO)C(=O)N[C@H](C(=O)N[C@@H](CC(=O)O)C(=O)N[C@H](C(=O)NCC(=O)N[C@@H](CO)C(=O)N[C@@H](CS)C(=O)N[C@H](C(=O)N[C@@H](CC(C)C)C(=O)N[C@H](C(=O)N[C@@H](CS)C(=O)O)C(C)C)[C@@H](C)O)C(C)C)[C@@H](C)O [Peptide 39.0346] (H-YNYLSTDVGSCTLVC-OH)
5,4.87,CC(C)C[C@H](NC(=O)[C@H](CCC(N)=O)NC(=O)[C@H](CC(=O)O)NC(=O)[C@H](Cc1c[nH]c2ccccc12)NC(=O)[C@@H]1CCCN1C(=O)[C@@H](NC(=O)[C@@H](NC(=O)[C@H](Cc1c[nH]cn1)NC(=O)[C@@H](N)C(C)C)[C@@H](C)O)C(C)C)C(=O)N[C@@H](Cc1ccccc1)C(=O)N[C@@H](CCCNC(=N)N)C(=O)N[C@@H](CC(N)=O)C(=O)N1CCC[C@H]1C(=O)N[C@@H](Cc1c[nH]cn1)C(=O)N[C@@H](CCC(N)=O)C(=O)O [Peptide 39.0353]
6,< 3.95,MRRLLQETELVEPLT [Peptide 39.0360]
7,4.19,NKEILDEAYVMAGVG [Peptide 39.0363]
8,4.18,QGFFCPDPAPGAGGM [Peptide 39.0376]
9,< 3.95,CC(C)[C@H](N)C(=O)N[C@H](C(=O)N[C@@H](CS)C(=O)N[C@@H](Cc1ccccc1)C(=O)NCC(=O)N1CCC[C@H]1C(=O)N[C@@H](CCC(=O)O)C(=O)N[C@@H](C)C(=O)N[C@@H](CC(=O)O)C(=O)N[C@@H](CCC(N)=O)C(=O)N[C@@H](CS)C(=O)N[C@H](C(=O)N[C@@H](C)C(=O)N[C@@H](CS)C(=O)N[C@@H](C)C(=O)O)C(C)C)[C@@H](C)O [Peptide 39.0356]
10,4.92,GDLVDAEEYLVPQQG [Peptide 39.0375]
11,< 3.95,ETEYHADGGKVPIKW [Peptide 39.0367]
12,4.95,CC(C)C[C@H](NC(=O)[C@@H]1CCCN1C(=O)[C@@H](NC(=O)[C@@H](NC(=O)[C@@H]1CCCN1C(=O)[C@H](CC(=O)O)NC(=O)[C@H](CCC(=O)O)NC(=O)[C@H](CO)NC(=O)[C@H](Cc1ccc(O)cc1)NC(=O)[C@H](CCCNC(=N)N)NC(=O)[C@H](CCC(N)=O)NC(=O)[C@@H](N)CC(C)C)[C@@H](C)O)C(C)C)C(=O)N1CCC[C@H]1C(=O)N[C@@H](CO)C(=O)N[C@@H](CCC(=O)O)C(=O)O [Peptide 39.0379]
13,3.88,CC(C)C[C@H](NC(=O)[C@@H](NC(=O)[C@H](CCC(=O)O)NC(=O)[C@H](Cc1ccccc1)NC(=O)[C@@H](NC(=O)[C@H](CCC(N)=O)NC(=O)[C@H](CC(C)C)NC(=O)[C@H](CCC(N)=O)NC(=O)[C@H](CCC(=O)O)NC(=O)[C@@H]1CCCN1C(=O)[C@H](CCC(N)=O)NC(=O)[C@H](CC(C)C)NC(=O)[C@@H]1CCCN1C(=O)[C@H](C)NC(=O)[C@@H](N)[C@@H](C)O)C(C)C)[C@@H](C)O)C(=O)O [Peptide 39.0351]
14,4.38,CC[C@H](C)[C@H](NC(=O)CNC(=O)[C@H](Cc1ccccc1)NC(=O)[C@@H](NC(=O)[C@H](CC(C)C)NC(=O)[C@@H](N)CCC(N)=O)C(C)C)C(=O)N[C@@H](CCC(=O)O)C(=O)N[C@H](C(=O)N[C@H](C(=O)N[C@@H](CCC(=O)O)C(=O)N[C@H](C(=O)N[C@H](C(=O)N1CCC[C@H]1C(=O)N[C@H](C(=O)N[C@@H](CO)C(=O)O)[C@@H](C)CC)C(C)C)C(C)C)C(C)C)C(C)C [Peptide 39.0389]
15,4.40,AIKVLRENTSPKANK [Peptide 39.0362]
16,< 3.92,DNLYYWDQDPPERGA [Peptide 39.0383]
17,4.44,CSCC[C@H](NC(=O)CNC(=O)[C@H](CC(C)C)NC(=O)CNC(=O)[C@H](Cc1ccc(O)cc1)NC(=O)[C@@H](N)CS)C(=O)N[C@@H](CCC(=O)O)C(=O)N[C@@H](Cc1c[nH]cn1)C(=O)N[C@@H](CC(C)C)C(=O)N[C@@H](CCCNC(=N)N)C(=O)N[C@@H](CCC(=O)O)C(=O)N[C@H](C(=O)N[C@@H](CCCNC(=N)N)C(=O)N[C@@H](C)C(=O)N[C@H](C(=O)O)C(C)C)C(C)C [Peptide 39.0348]
18,< 3.92,KNGVVKDVFAFGGAV [Peptide 39.0381]
19,4.43,CSCC[C@H](NC(=O)[C@H](CC(=O)O)NC(=O)[C@H](CC(=O)O)NC(=O)[C@H](CC(=O)O)NC(=O)[C@H](CCC(=O)O)NC(=O)[C@H](CC(C)C)NC(=O)[C@H](CC(C)C)NC(=O)[C@H](CO)NC(=O)[C@@H](N)CCCNC(=N)N)C(=O)NCC(=O)N[C@@H](CC(=O)O)C(=O)N[C@@H](CC(C)C)C(=O)N[C@H](C(=O)N[C@@H](CC(=O)O)C(=O)N[C@@H](C)C(=O)O)C(C)C [Peptide 39.0374]

# Same assay, conditions: read-out: In IC50 Format DR3; Table VIII
row,pIC50,Molecule
1,< 3.92,CC(C)C[C@H](NC(=O)[C@H](CCCCN)NC(=O)[C@H](Cc1c[nH]c2ccccc12)NC(=O)[C@H](CC(C)C)NC(=O)[C@H](CC(=O)O)NC(=O)[C@H](CO)NC(=O)[C@H](Cc1ccccc1)NC(=O)[C@@H](NC(=O)[C@H](CCC(=O)O)NC(=O)[C@H](CCC(N)=O)NC(=O)[C@H](CO)NC(=O)[C@H](CC(C)C)NC(=O)[C@@H]1CCCN1C(=O)[C@@H]1CCCN1C(=O)[C@@H](N)CCC(=O)O)[C@@H](C)O)C(=O)O [Peptide 39.0409]
2,< 3.92,C[C@H](NC(=O)[C@H](CCC(=O)O)NC(=O)[C@H](CC(=O)O)NC(=O)[C@@H]1CCCN1C(=O)CNC(=O)[C@@H]1CCCN1C(=O)[C@H](CC(=O)O)NC(=O)[C@H](CCC(=O)O)NC(=O)[C@@H](NC(=O)[C@H](Cc1ccccc1)NC(=O)[C@H](Cc1c[nH]c2ccccc12)NC(=O)[C@H](CCC(N)=O)NC(=O)[C@@H](N)CCC(=O)O)[C@@H](C)O)C(=O)N1CCC[C@H]1C(=O)N[C@@H](CCCNC(=N)N)C(=O)O [Peptide 39.0412]
3,< 3.92,CC[C@H](C)[C@H](NC(=O)[C@H](C)NC(=O)[C@@H](N)CC(C)C)C(=O)N[C@H](C(=O)N[C@@H](C)C(=O)N[C@@H](CCCNC(=N)N)C(=O)N[C@@H](CCC(=O)O)C(=O)NCC(=O)N[C@@H](CC(=O)O)C(=O)N[C@@H](CS)C(=O)N[C@@H](C)C(=O)N1CCC[C@H]1C(=O)N[C@@H](CCC(=O)O)C(=O)N[C@@H](CCC(=O)O)C(=O)N[C@@H](CCCCN)C(=O)O)[C@@H](C)CC [Peptide 39.0405]
4,4.00,CC[C@H](C)[C@H](NC(=O)[C@@H](NC(=O)[C@@H](N)CC(C)C)[C@@H](C)O)C(=O)N[C@H](C(=O)N[C@H](C(=O)N[C@@H](CC(C)C)C(=O)N[C@@H](CCC(=O)O)C(=O)N[C@@H](CC(=O)O)C(=O)N[C@@H](CO)C(=O)N[C@@H](CO)C(=O)NCC(=O)N[C@@H](CC(N)=O)C(=O)N[C@@H](CC(C)C)C(=O)N[C@@H](CC(C)C)C(=O)NCC(=O)O)[C@@H](C)O)[C@@H](C)CC [Peptide 39.0421]
5,4.11,CC(C)C[C@H](NC(=O)[C@H](CC(N)=O)NC(=O)CNC(=O)[C@@H](N)CCC(=O)O)C(=O)N[C@@H](CCCNC(=N)N)C(=O)N[C@H](C(=O)N[C@@H](CCC(=O)O)C(=O)N[C@@H](Cc1ccc(O)cc1)C(=O)N[C@@H](CC(C)C)C(=O)N[C@@H](CC(=O)O)C(=O)N[C@@H](CC(=O)O)C(=O)N[C@@H](CCCNC(=N)N)C(=O)N[C@@H](CC(N)=O)C(=O)N[C@H](C(=O)N[C@@H](Cc1ccccc1)C(=O)O)[C@@H](C)O)C(C)C [Peptide 39.0417]
6,5.00,CC(C)C[C@H](NC(=O)[C@H](CCC(N)=O)NC(=O)[C@@H](NC(=O)[C@@H]1CCCN1)C(C)C)C(=O)N[C@@H](Cc1c[nH]c2ccccc12)C(=O)N[C@H](C(=O)N[C@@H](CC(=O)O)C(=O)N[C@@H](CO)C(=O)N[C@H](C(=O)N1CCC[C@H]1C(=O)N1CCC[C@H]1C(=O)N1CCC[C@H]1C(=O)NCC(=O)N[C@H](C(=O)N[C@@H](CCCNC(=N)N)C(=O)O)[C@@H](C)O)[C@@H](C)O)C(C)C [Peptide 39.0413]
7,< 3.92,CC[C@H](C)[C@H](NC(=O)[C@H](C)NC(=O)[C@@H](N)CCSC)C(=O)N[C@@H](Cc1ccc(O)cc1)C(=O)N[C@@H](CCCCN)C(=O)N[C@@H](CCC(N)=O)C(=O)N[C@@H](CO)C(=O)N[C@@H](CCC(N)=O)C(=O)N[C@@H](Cc1c[nH]cn1)C(=O)N[C@@H](CCSC)C(=O)N[C@H](C(=O)N[C@@H](CCC(=O)O)C(=O)N[C@H](C(=O)N[C@H](C(=O)N[C@@H](CCCNC(=N)N)C(=O)O)C(C)C)C(C)C)[C@@H](C)O [Peptide 39.0414]
